Data reported in US11143585B2, “Photoelectrical device for concentration detection, method for concentration detection thereof and method for testing an antibiotic susceptibility on bacteria” (priority 2018, dated 2021).

Key:
[1] = test system: oxacillin-susceptible Staphylococcus aureus (OSSA); experiment: Antibiotic effectiveness test with the photoelectrical device, control sample containing OSSA and oxacillin; type: cell-based; conditions: oxacillin about 4 μg/ml in TSB, initial 6×10^4 CFU/ml
Protocol: FIG. 3A is an electric current-voltage curve obtained by the photoelectrical device of the present invention for detecting an effectiveness of an antibiotic on bacteria. In the method for testing the effectiveness of an antibiotic on bacteria of the present invention, firstly, a fluid sample containing bacteria and an antibiotic is prepared, wherein the bacterial concentration of the fluid sample is between 10^4 and 10^5 CFU/ml. Use FIG. 3A as an example, the fluid sample to be detected contains an antibiotic: oxacillin, and bacteria: oxacillin-resistant Staphylococcus aureus (ORSA, hereinafter as ORSA for short). There is also another control sample used as a control group containing oxacillin and oxacillin-susceptible Staphylococcus aureus (OSSA, hereinafter as OSSA for short). In FIG. 3A, curve B3 is the background information and is drawn by detecting a sterile fluid sample. […]
(§1) FIG. 3B is a diagram illustrating the relationship between the change rate of electric current and the incubation time measured on the photoelectric device 100 after being incubated for different periods of time based on FIG. 3A, wherein the vertical axis represents the change rate of electric current and its definition is the same as the above mathematical formula (1), while the horizontal axis represents the incubation time (also referred to as incubation period). […]

[2] = test system: oxacillin-resistant Staphylococcus aureus (ORSA); experiment: Antibiotic effectiveness test with the photoelectrical device, fluid sample containing ORSA and oxacillin; type: cell-based
Protocol: FIG. 3A is an electric current-voltage curve obtained by the photoelectrical device of the present invention for detecting an effectiveness of an antibiotic on bacteria. In the method for testing the effectiveness of an antibiotic on bacteria of the present invention, firstly, a fluid sample containing bacteria and an antibiotic is prepared, wherein the bacterial concentration of the fluid sample is between 10^4 and 10^5 CFU/ml. Use FIG. 3A as an example, the fluid sample to be detected contains an antibiotic: oxacillin, and bacteria: oxacillin-resistant Staphylococcus aureus (ORSA, hereinafter as ORSA for short). There is also another control sample used as a control group containing oxacillin and oxacillin-susceptible Staphylococcus aureus (OSSA, hereinafter as OSSA for short). In FIG. 3A, curve B3 is the background information and is drawn by detecting a sterile fluid sample. Curve OS31 is drawn by detecting the control sample containing OSSA and oxacillin, and curve OR31 is drawn by detecting a fluid sample containing ORSA and oxacillin.
Both the above fluid sample and the control sample are added with oxacillin of a concentration of about 4 μg/ml in the tryptic soy broth (TSB) to incubate OSSA and ORSA respectively, and both of them respectively contain OSSA and ORSA with a bacterial concentration of 6×10^4 CFU/ml. After preparing the above fluid sample and the control sample, the bacteria (ORSA) in the fluid sample and the bacteria (OSSA) in the control sample are incubated, wherein the time for incubating the bacteria can be more than 3 hours, for example, 4 hours. […]
as §1

With `Cc1onc(-c2ccccc2)c1C(=O)N[C@@H]1C(=O)N2[C@@H]1SC(C)(C)[C@@H]2C(=O)O` [oxacillin] the “change in the change rate of electric current of the OSSA sample as incubation time increases” value ([1]; FIG. 3B curve OS32) was “no significant change”, the “inhibition of OSSA reproduction (conclusion from change rate of electric current)” value ([1]; increasing incubation time) was “inhibited by oxacillin and difficult to reproduce” and the “change rate of electric current of the ORSA fluid sample” value ([2]; oxacillin about 4 μg/ml in TSB, initial 6×10^4 CFU/ml, after 4 hours of incubation time, FIG. 3B curve OR32) was “more than 10%”. For the same compound, the “inhibition of ORSA reproduction (conclusion from change rate of electric current)” value ([2]; oxacillin about 4 μg/ml in TSB, initial 6×10^4 CFU/ml, increasing incubation time) was “not inhibited by oxacillin” and the “difference between the change rates of electric current of the ORSA fluid sample and the OSSA control sample” value ([2]; oxacillin about 4 μg/ml, after more than 3 hours of incubation period, FIG. 3B) was no less than 4%.
